Source: patent publication US20020107269A1, “Benzoxazole LPAAT-B inhibitors and uses thereof” (CELL THERAPEUTICS, INC., priority 2000, published 2002)

What follows are compounds tested against T1, LPAAT-β (Homo sapiens, UniProt O15120) (assay: LPAAT-β colorimetric assay (DTNB detection of released CoA)). Conditions: Sf9 cell membrane overexpressing LPAAT-β; 18:1-CoA and sn-1-18:1 lysoPA; absorbance at 405 nm; read-out: LPAATβ Colorimetric Assay IC50.
T1 construct: the full-length human LPAAT-β cDNA was amplified by PCR; poly-histidine tag (N); made in house; host or cells: Sf9 insect cells (baculovirus, pFastBac HTc); membrane fraction used
T1 sequence (O15120 24-278): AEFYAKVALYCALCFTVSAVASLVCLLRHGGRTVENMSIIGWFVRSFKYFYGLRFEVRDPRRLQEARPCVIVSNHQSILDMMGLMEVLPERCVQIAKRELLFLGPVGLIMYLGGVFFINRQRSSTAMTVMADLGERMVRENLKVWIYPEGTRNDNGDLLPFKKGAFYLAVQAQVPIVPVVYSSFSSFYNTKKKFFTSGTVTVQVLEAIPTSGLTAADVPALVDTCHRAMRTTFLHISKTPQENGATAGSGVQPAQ
Assay type: biochemical
Source text: For the construction of Baculovirus expression vectors, the full-length human LPAAT-β cDNA was amplified by PCR from the DNA template pCE9.LPAAT-β (West et al., DNA Cell Biol. 16:691-701 (1997)) using the primers 5′-TGATATCCGAAGAAGATCTTATGGAGCTGTGGCCGTGTC-3′ (olpb1F) and 5′-CAGGCTCTAG ACTACTGGGC CGGCTGCAC-3′ (olpb1R). The ˜870 bp fragment generated was reamplified by PCR using the primers 5′ CCTACGTCG ACATGGAACAAAAATTGATATCCGAAGAAGATC-3′ (olpb2F) and 5′-CAGGCTCTAG ACTACTGGGC CGGCTGCAC-3′ (olpb1R). The ˜890 bp fragment generated was then cleaved with Sal I and Xba I for insertion into pFastBac™ HTc vector (Life Technologies, Gaithersberg, Md.) between the Sal I and Xba I sites for the generation of the plasmid pFB.LPAAT-β. This plasmid was then transformed into E. coli DH10Bac™ (Life Technologies, Gaithersberg, Md.) for the generation of recombinant Bacmid DNA for transfection into HighFive (Invitrogen, San Diego, Calif.) or SF9 insect cells for the production of recombinant Baculovirus stocks using the protocol described in the Bac-to-Bac® Baculovirus Expression System (Life Technologies, Gaithersberg, Md.), a eukaryotic expression system for generating recombinant baculovirus through site-specific transposition in E. coli. Viral stocks harvested from the transfected cells can then be used to infect fresh insect cells for the subsequent expression of LPAAT-β fusion protein with a poly-histidine tag and a myc-epitope near its N-terminus. The membrane fraction from these Sf9 cells would be the source of LPAAT enzyme.
For the preparation of membranes From Sf9 Cells, all steps are performed on ice or at 4° C. Sf9 cell pellets ([…]) were thawed and resuspended in 1-2 ml of buffer A (20 mM Hepes, pH 7.5, 1 mM DTT, 1 mM EDTA, 20% w/v glycerol, 1 mM Benzamidine, 1 μg/ml soybean trypsin inhibitor (SBTI), 1 μg/ml pepstatin A) w/o DTT but with 1 mM Pefabloc. The cells were lysed by sonication using a Branson Sonifier at output=2, duty cycle=2, 10 pulses each at 10 s. with the tip of small sonicator probe submerged but not touching the walls. DTT was then added to 1 mM from a 1M stock. The samples were centrifuged at 1500 rpm for 5 min. The low speed supernatant was saved and centrifuged (TLA 100.3 rotor, polycarbonate tubes, 2 ml/tube or 1.5 ml/tube minimum) at 100000×g for 1 hr. The high speed pellet was resuspend in Buffer A with a probe sonicator (10 pulses @ output #2 and duty cycle 20%) as a source of LPAAT enzyme.
LPAAT-β catalyzes the transfer of an acyl group from a donor such as acyl-CoA to LPA. The transfer of the acyl group from acyl-CoA to LPA leads to the release of free CoA, which can be reacted with the thiol reagent, 5,5′-dithiobis(2-nitrobenzoic acid) (DTNB). The reaction between DTNB and the free sulfhydryl group from CoA generates a yellow-colored product, 3-carboxylato-4-nitrothiophenolate (CNP), that absorbs at 413 nm. LPAAT-β derived from Sf9 cell membrane overexpressing LPAAT-β were resuspended in HEPES saline buffer (20 mM HEPES pH 7.5, 150 mM NaCl), 1 mg/ml BSA and 72 μl aliquots were distributed into 96-well microtiter plates. 8 μl of compound of interest at 200 μM dissolved in 100% DMSO was added into each well. 20 μl of 1 mM 18:1-CoA and 1 mM sn-1-18:1 lysoPA was then added to each well to initiate the reaction and allowed to run at room temperature for 25 min. 100 μl of 1 mM DTNB in 100% ethanol was then added to each well to quench the reaction and for color development. The absorbance at 405 nm, measured using a spectrophotometer plate reader, is proportional to the activity of LPAAT-β in the sample. This calorimetric assay was used for the high throughput screening of LPAAT inhibitors. […] Compounds that gave a reading of less than 0.06 arbitrary units (indicated by arrow on right margin) were selected for further study.
In the case of `C#CCOC(=O)Nc1ccc(Cl)c(-c2nc3cc(C)ccc3o2)c1` [CT-32037, (4-Chloro-3-(5-methyl-benzooxazol-2-yl)-phenyl)-carbamic Acid Prop-2-ynyl Ester], the IC50 is reported as 190 nM. Compound `[N-]=[N+]=NCC(=O)Nc1ccc(Cl)c(-c2nc3cc(Cl)ccc3o2)c1` [CT-32289, 2-Azido-N-[4-chloro-3-(5-chloro-benzooxazol-2-yl)-phenyl]-acetamide] has an IC50 of 175 nM. For `CCC(=O)Nc1ccc(F)c(-c2nc3cc(C)ccc3o2)c1` [CT-32011, N-(4-Fluoro-3-(5-methyl-benzooxazol-2-yl)-phenyl)-propionamide], the IC50 was 15500 nM. `N#CCC(=O)Nc1ccc(Cl)c(-c2nc3cccnc3o2)c1` [CT-32271, N-(4-Chloro-3-oxazolo[5,4,b]pyridin-2-yl-phenyl)-2-cyano-acetamide] was tested, and the IC50 was 190 nM. In the case of `N#CCC(=O)Nc1ccc(Cl)c(-c2nc3cccnc3s2)c1` [CT-32315, N-(4Chloro-3-thiazolo[5,4,b]pyridin-2-yl-phenyl)-2-cyano-acetamide], the IC50 is reported as 110 nM. `C#CCOC(=O)Nc1ccc(C)c(-c2nc3cc(Cl)ccc3s2)c1` [CT-32268, [3-(5-chloro-benzothiazol-2-yl)-4-methyl-phenyl]-carbamic Acid Prop-2-ynyl Ester] was tested, and the IC50 was 150 nM. `COC(=O)Nc1ccc(Cl)c(-c2nc3cc(C)ccc3n2C)c1` [CT-32061, (4-Chloro-3-(1,5-dimethyl-1H-benzoimidazol-2-yl)-phenyl)-carbamic Acid Methyl Ester] gave an IC50 of 10800 nM. `COC(=O)Nc1ccc(Cl)c(-c2nc3cc(Cl)ccc3s2)c1` [CT-32191, [4-Chloro-3-(5-chloro-benzothiazol-2-yl)-phenyl]-carbamic Acid Methyl Ester] gave an IC50 of 40 nM. In the case of `CNC(=O)Nc1ccc(Cl)c(-c2nc3cc(C)ccc3o2)c1` [CT-32021, 1-(4-Chloro-3-(5-methyl-benzooxazol-2-yl)-phenyl)-3-methyl-urea], the IC50 is reported as 4000 nM. For `C#CCOC(=O)Nc1ccc(Cl)c(-c2nc3cc(C(F)(F)F)ccc3o2)c1` [CT-32173, (4-Chloro-3-(5-trifluoromethyl-benzooxazol-2-yl)-phenyl)-carbamic Acid Prop-2-ynyl Ester], the IC50 was 140 nM. `CCC(=O)Nc1ccc(Cl)c(-c2nc3ccccc3o2)c1` [CT-32008, N-(3-Benzooxazol-2-yl-4-chloro-phenyl)-propionamide] was tested, and the IC50 was 900 nM. With `CCC(=O)N(C)c1ccc(Cl)c(-c2nc3cc(C)ccc3o2)c1` [CT-32019, N-(4-Chloro-3-(5-methyl-benzooxazol-2-yl)-phenyl)-N-methyl-propionamide] the IC50 was 12000 nM. Work on `C#CCOC(=O)Nc1ccc(Cl)c(-c2nc3cc(Cl)ccc3o2)c1` [CT-32161, (4-Chloro-3-(5-chloro-benzooxazol-2-yl)-phenyl)-carbamic Acid Prop-2-ynyl Ester] yielded an IC50 of 35 nM. Compound `C#CCOC(=O)Nc1ccc(Cl)c(-c2nc3c(C)cccc3o2)c1` [CT-32079, (4-Chloro-3-(4-methyl-benzooxazol-2-yl)-phenyl)-carbamic acid Prop-2-ynyl Ester] has an IC50 of 160 nM. `COC(=O)Nc1ccc(C)c(-c2nc3cc(C)ccc3o2)c1` [CT-32036, (4-Methyl-3-(5-methyl-benzooxazol-2-yl)-phenyl)-carbamic Acid Methyl Ester] showed an IC50 of 1500 nM. Compound `C#CCOC(=O)Nc1ccc(Cl)c(-c2nc3cc(Cl)ccc3n2C)c1` [CT-32243, [4-Chloro-3-(5-chloro-1-methyl-1H-benzoimidazol-2-yl)-phenyl]-carbamic Acid Prop-2-ynyl Ester] has an IC50 of 60 nM. `C#CCCC(=O)Nc1ccc(Cl)c(-c2nc3cc(Cl)ccc3s2)c1` [CT-32278, Pent-4-ynoic acid [4-chloro-3-(5-chloro-benzothiazol-2-yl)-phenyl]-amide] showed an IC50 of 40 nM. Compound `N#CCC(=O)Nc1ccc(Cl)c(-c2nc3cc(Cl)ccc3s2)c1` [CT-32242, N-(4-Chloro-3-(5-chloro-benzothiazol-2-yl)-phenyl)-2-cyano-acetamide] has an IC50 of 15 nM. For `C#CCOC(=O)Nc1ccc(C)c(-c2nc3cc(C(F)(F)F)ccc3s2)c1` [CT-32203, 4-Methyl-3-(5-trifluoromethyl-benzothiazol-2-yl)-phenyl-carbamic Acid Prop-2-ynyl Ester], the IC50 was 40 nM. Compound `C#CCOC(=O)Nc1ccc(Cl)c(-c2nc3ncccc3o2)c1` [CT-32259, (4-Chloro-3-oxazolo[4,5,b]pyridin-2-yl-phenyl)-carbamic Acid Prop-2-ynyl Ester] has an IC50 of 800 nM. `C#CCOC(=O)Nc1ccc(C)c(-c2nc3cccnc3o2)c1` [CT-32290, (4-Methyl-3-oxazolo[5,4,b]pyridin-2-yl-phenyl)-carbamic Acid Prop-2-ynyl Ester] gave an IC50 of 1200 nM. For `C#CCOC(=O)Nc1ccc(Cl)c(-c2nc3ccccc3o2)c1` [CT-32154, (3-Benzooxazol-2-yl-4-chloro-phenyl)-carbamic Acid Prop-2-ynyl Ester], the IC50 was 50 nM. In the case of `COC(=O)Nc1ccc(Cl)c(-c2nc3cc(C(F)(F)F)ccc3s2)c1` [CT-32073, (4-Chloro-3-(5-trifluoromethyl-benzothiazol-2-yl)-phenyl)-carbamic Acid Methyl Ester], the IC50 is reported as 200 nM. `CCC(=O)Nc1ccc(Cl)c(-c2nc3cc(Cl)ccc3o2)c1` [CT-32160, N-(4-Chloro-3-(5-chloro-benzooxazol-2-yl)-phenyl)-propionamide] was tested, and the IC50 was 350 nM. `CC#CCOC(=O)Nc1ccc(Cl)c(-c2nc3cc(Cl)ccc3s2)c1` [CT-32262, (4-Chloro-3-(5-chloro-benzothiazol-2-yl)-phenyl)-carbamic Acid But-2-ynyl Ester] was tested, and the IC50 was 25 nM. With `C#CCOC(=O)Nc1ccc(Cl)c(-c2nc3cc(Cl)ccc3s2)c1` [CT-32192, (4-Chloro-3-(5-chloro-benzothiazol-2-yl)-phenyl)-carbamic Acid Prop-2-ynyl ester] the IC50 was 6 nM. Compound `C#CCCOC(=O)Nc1ccc(Cl)c(-c2nc3cc(Cl)ccc3s2)c1` [CT-32277, [4-Chloro-3-(5-chloro-benzothiazol-2-yl)-phenyl]-carbamic Acid But-3-ynyl Ester] has an IC50 of 55 nM. With `N#CCC(=O)Nc1ccc(Cl)c(-c2nc3cc(Cl)ccc3o2)c1` [CT-32214, N-[4-Chloro-3-(5-chloro-benzooxazol-2-yl)-phenyl]-2-cyano-acetamide] the IC50 was 270 nM. Compound `COC(=O)Nc1ccc(Cl)c(-c2nc3ccccc3o2)c1` [CT-32009, (3-Benzooxazol-2-yl-4-chloro-phenyl)-carbamic Acid Methyl Ester] has an IC50 of 500 nM. Compound `CCC(=O)Nc1ccc(Cl)c(-c2nc3cc(C(F)(F)F)ccc3s2)c1` [CT-32142, N-(4-Chloro-3-(5-trifluoromethyl-benzothiazol-2-yl)-phenyl)-propionamide] has an IC50 of 220 nM. In the case of `COC(=O)Nc1ccc(Cl)c(-c2nc3cc(Cl)ccc3o2)c1` [CT-32053, (4-Chloro-3-(5-chloro-benzooxazol-2-yl)-phenyl)-carbamic Acid Methyl Ester], the IC50 is reported as 300 nM.
